These results are taken from patent US20180177771A1, “BIOMARKERS FOR NANOPARTICLE COMPOSITIONS” (priority 2015, published 2018).

The conditions of series [1]: in vivo; cited from earlier work.
For another series, the system named is ABCB1/ABCG2. To be noted: cited from earlier work.
The subject of series [2] is UMUC3 human bladder cancer xenografts. Description: UMUC3 bladder cancer mouse xenograft, Part B combination study. To be noted: ABI-009 3 mg/kg twice weekly IV, gemcitabine 30 mg/kg twice weekly IP.
Procedure: The anti-tumor efficacy of a panel of drugs, including mitomycin C, cisplatin, gemcitabine, valrubicin, and docetaxel, in combination with Nab-sirolimus (such as ABI-009) were evaluated and compared in a UMUC3 cell xenograft model in athymic nude mice.
Tumors were established from the UMUC3 cells as follows. Female athymic nude mice were obtained and housed in filter-topped cages supplied with autoclaved bedding. Animal handling procedures were under laminar flow hood. Each mouse was ear tagged for individual identification, and the body weight of each mouse was recorded. UMUC3 cells (10×10^6 cells per flank in 0.1 mL PBS with 20% Matrigel) were injected subcutaneously into the right flank of each mouse to implant the tumor. Tumor measurements were recorded three times per week (such as on Mondays, Wednesdays and Fridays) until tumors became approximately 60 to 160 mm^3 total. The mice were randomized for treatment once the average tumor volumes reached approximately 100 mm^2. Prior to the treatment, body weights and tumor measurements of all mice were recorded.
In the Part B combination study, athymic mice bearing UMUC3 human bladder cancer xenografts were treated until study end with ABI-009 (3 mg/kg, twice weekly, IV via tail vein), mitomycin C (0.5 mg/kg, twice weekly, IP), cisplatin (3 mg/kg, twice weekly. IP), gemcitabine (30 mg/kg, twice weekly, IP), valrubicin (20 mg/kg, twice weekly, IP), and docetaxel (3 mg/kg, twice weekly, IP) either as single agent or in combination (ABI-009 plus chemotherapeutic agent). Animals were monitored for tumor volume and body weight.
In each combination of drugs being administered comprising Nab-sirolimus and a second drug (such as MMC. Cis, GEM. Val, and Doc), the second drug was administered immediately before Nab-sirolimus. The mice were monitored during the course of the treatment by recording body weights three times per week (such as on Mondays, Wednesdays and Fridays), recording signs of distress daily, and recording tumor measurements three times per week (such as on Mondays. Wednesdays and Fridays). Measurements of tumor sizes and body weights were continued for 2 weeks following completion of the dosing regimen, or until the mouse was sacrificed when the tumor size of the mouse is more than 2000 mm^3.

Broadly, the TGI is how far tumour growth fell short of that in controls.

Each structure is given as a SMILES string.

Regarding `COc1ccc(COc2cc3oc(=O)c4cc(C(C)O)ccc4c3cc2OC)cc1` (stereo not drawn) [Palomid 529], the brain penetration entry in series [1] was “good brain penetration”. In addition, the “affinity for ABCB1/ABCG2” value in the series with ABCB1/ABCG2 is recorded as “lacks affinity for ABCB1/ABCG2”.

Regarding `Nc1ccn([C@@H]2O[C@H](CO)[C@@H](O)C2(F)F)c(=O)n1` [gemcitabine], in series [2], the “animal survival compared with saline control” value is recorded as “only modest effects” and the “antitumor activity (tumor growth inhibition) compared with saline control” value is “only modest effects”. The median survival in series [2] (Log-rank test) was 20 days. Also, in series [2] (single agent or combination), the TGI came out at 41.7%.
